The source of these data is article PMC9140701, “Immunomodulatory Role of BLG-Derived Peptides Based on Simulated Gastrointestinal Digestion and DC-T Cell from Mice Allergic to Cow’s Milk” (Foods, 2022).

In one data set the test system is Caco-2 cell monolayer. Description: Caco-2 monolayer transport (apparent permeability), normal and IL-1β-induced inflammation model. It is filed as in vitro ADME, human. Conditions: integrity check. The method, then: (§1) Caco-2 cells (a human colon adenocarcinoma cell line) were preserved in our lab and cultured in DMEM supplemented with 12% (v/v) FBS (FND500, ExCell Bio, Shanghai, China), 1% (v/v) L-glutamine, 1% (v/v) streptomycin–penicillin, and 1% (v/v) nonessential amino acids at 37 °C and 5% CO2. Caco-2 cells were seeded in 12-well Transwell plates at a density of 2 × 10^5 cells per well. On the 10th to 21st days, the transepithelial electrical resistance (TEER) of each well was detected using a Millicell ERS-2 V-ohm meter (Millipore, Boston, MA, USA). […] The protein profile of cow’s milk after simulated digestion was detected by (A) Tricine-SDS-PAGE. Lane 1: unstained low range protein ladder. Lane 2: pepsin. Lane 3: the cow’s milk. Lane 4: cow’s milk digested in the simulated adult gastrointestinal fluid for 0 min. Lane 5: cow’s milk digested in the simulated adult gastric fluid for 60 min. Lane 6: cow’s milk digested in the simulated adult gastrointestinal fluid for 60 min. Lane 7: cow’s milk digested in the simulated infant gastrointestinal fluid for 0 min. Lane 8: cow’s milk digested in the simulated infant gastric fluid for 60 min. Lane 9: cow’s milk digested in the infant simulated gastrointestinal fluid for 60 min. […] Y-axis value represents the occurrence numbers of amino acids of BLG peptides. (C) The whole amino acid sequence of BLG used in our study; the red letters indicate the areas where unique peptides are present after the simulated digestion of the infants, while the green letters represent unique peptides in the adults’ digestion. (D) The Papp of BLG peptides across Caco-;2 monolayers at 30 min, 1 h, 2 h, 3 h, and 4 h in the normal model and IL-1β-induced inflammation model, respectively. The data were calculated in three replicates. BLG, beta-lactoglobulin. Papp, apparent permeability coefficients.

Assay in data set [1]: as above
Type of data set: in vitro ADME, human. To be noted: human; Caco-2 monolayer, 12-well Transwell, 21 days, TEER > 400 Ω × cm^2, from AP side, 37 °C; within 2 h, at the three time points; normal model and IL-1β-induced inflammation model; three replicates; read-out: apparent permeability coefficient (Papp). As for the experimental part:
as §1

Ends that are not written are not given here. Where only a bound is given, the exact number is not on record here.

Consider `O=C([O-])c1ccccc1-c1c2ccc(=O)cc-2oc2cc([O-])ccc12.[Na+].[Na+]` [fluorescein sodium, reference compound], for which the “fluorescein sodium transport permeability” value in the data set with Caco-2 cell monolayer (Caco-2 monolayer after 21 days, normal mode) is recorded as 1.19 μg/h·cm^2; with Caco-2 cell monolayer (Caco-2 monolayer, inflammatory mode (IL-1β 10 ng/mL added on the 21st day, removed after 2 days)) it was 1.71 μg/h·cm^2. In the case of LIVTQTMKGLDIQK [Peptide A1], in data set [1], the Papp A→B was over 2 ×10⁻⁶ cm/s. For MAASDISLLDAQ [Peptide A2], the Papp A→B in data set [1] was over 2 ×10⁻⁶ cm/s.

In the case of RVYVEELKPTPEGDLEILLQK [Peptide A3], the Papp A→B in data set [1] is over 2 ×10⁻⁶ cm/s.
